Measurements from ChEMBL document CHEMBL3774336, “Identification of spirooxindole and dibenzoxazepine motifs as potent mineralocorticoid receptor antagonists” (Bioorg Med Chem, 2016).

Legend:
[1] = biological target: 5-hydroxytryptamine receptor 2B (Homo sapiens) (UniProt P41595); assay: Inhibition of serotonin 5H2B receptor (unknown origin) at 10 uM
[2] = biological target: Histamine H1 receptor (Homo sapiens) (UniProt P35367); assay: Inhibition of histamine H1 receptor (unknown origin) at 10 uM
[3] = biological target: T1, Mineralocorticoid receptor (Homo sapiens, UniProt P08235, C808S)
[4] = biological target: T2, Estrogen receptor (Homo sapiens) (UniProt P03372); assay: Inhibition of estrogen receptor (unknown origin) at 10 uM by Gal4-based luciferase assay
T2 sequence (whole entry): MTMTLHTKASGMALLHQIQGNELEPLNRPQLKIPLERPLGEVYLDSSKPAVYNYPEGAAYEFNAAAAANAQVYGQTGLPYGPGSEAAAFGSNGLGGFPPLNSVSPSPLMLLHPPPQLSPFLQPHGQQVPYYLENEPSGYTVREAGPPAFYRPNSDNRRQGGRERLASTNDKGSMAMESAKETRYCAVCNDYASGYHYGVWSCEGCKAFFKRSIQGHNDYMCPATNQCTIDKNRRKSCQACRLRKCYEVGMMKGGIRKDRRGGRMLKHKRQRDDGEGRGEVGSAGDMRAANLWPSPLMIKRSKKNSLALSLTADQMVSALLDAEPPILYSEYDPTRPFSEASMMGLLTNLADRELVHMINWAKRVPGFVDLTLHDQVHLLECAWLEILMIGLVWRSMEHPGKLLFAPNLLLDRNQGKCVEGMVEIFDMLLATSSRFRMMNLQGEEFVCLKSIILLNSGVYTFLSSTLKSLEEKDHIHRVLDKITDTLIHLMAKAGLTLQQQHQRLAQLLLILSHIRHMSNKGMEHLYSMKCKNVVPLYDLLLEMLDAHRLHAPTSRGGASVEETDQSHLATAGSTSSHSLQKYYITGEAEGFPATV

[5] = biological target: T1, Mineralocorticoid receptor; remark: listed apart in the source
Cytochrome P450 2D6 = Cytochrome P450 2D6 (Homo sapiens, UniProt P10635); assay: Inhibition of CYP2D6 (unknown origin); format: ADME
Cytochrome P450 3A4 = Cytochrome P450 3A4 (Homo sapiens, UniProt P08684)
Description: Inhibition of CYP3A4 (unknown origin)

[6] = biological target: T3, Glucocorticoid receptor (Homo sapiens) (UniProt P04150); assay: Inhibition of GST-tagged human glucocorticoid receptor LBD domain expressed in insect cells at 10 uM by Gal4-based fluorescence polarization assay
T3 sequence (whole entry): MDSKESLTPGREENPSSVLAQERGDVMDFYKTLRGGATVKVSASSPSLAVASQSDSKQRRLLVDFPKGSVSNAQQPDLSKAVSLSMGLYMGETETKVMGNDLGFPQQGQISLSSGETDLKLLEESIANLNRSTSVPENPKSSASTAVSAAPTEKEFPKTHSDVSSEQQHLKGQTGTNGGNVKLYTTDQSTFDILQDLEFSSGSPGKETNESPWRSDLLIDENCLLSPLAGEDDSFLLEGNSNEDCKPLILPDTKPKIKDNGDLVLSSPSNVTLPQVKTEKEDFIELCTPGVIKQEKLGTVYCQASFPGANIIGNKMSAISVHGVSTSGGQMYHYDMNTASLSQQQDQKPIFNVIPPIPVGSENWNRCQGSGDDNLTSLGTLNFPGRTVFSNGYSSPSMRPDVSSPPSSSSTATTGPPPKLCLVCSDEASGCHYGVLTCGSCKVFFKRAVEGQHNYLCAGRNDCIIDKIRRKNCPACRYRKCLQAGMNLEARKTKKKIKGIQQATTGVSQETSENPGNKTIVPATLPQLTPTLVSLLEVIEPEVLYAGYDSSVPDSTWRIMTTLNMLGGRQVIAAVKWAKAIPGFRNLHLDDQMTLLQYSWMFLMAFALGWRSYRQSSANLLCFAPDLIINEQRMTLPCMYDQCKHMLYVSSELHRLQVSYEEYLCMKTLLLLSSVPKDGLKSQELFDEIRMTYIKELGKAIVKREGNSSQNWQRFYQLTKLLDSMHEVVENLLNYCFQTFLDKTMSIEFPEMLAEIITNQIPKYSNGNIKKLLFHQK

hERG (KCNH2) = hERG (KCNH2) (Homo sapiens, UniProt Q12809); assay: Inhibition of human ERG (unknown origin) at 10 uM
Cytochrome P450 2C9 = Cytochrome P450 2C9 (Homo sapiens, UniProt P11712); assay: Inhibition of CYP2C9 (unknown origin); format: ADME
[7] = Half life of compound in rat liver microsomes; format: ADME
[8] = biological target: T1, Mineralocorticoid receptor; assay: (§1) Agonist activity against 6xHis-MBP-fused human MR LBD domain (732 to 984 amino acid residues) C808S mutant expressed in Escherichia coli BL21(DE3) assessed as receptor activation after 16 hrs by luciferase assay
[9] = tested on: T4, Mineralocorticoid receptor (Homo sapiens), P08235 [C808S]; assay: as §1
T4 sequence (whole entry): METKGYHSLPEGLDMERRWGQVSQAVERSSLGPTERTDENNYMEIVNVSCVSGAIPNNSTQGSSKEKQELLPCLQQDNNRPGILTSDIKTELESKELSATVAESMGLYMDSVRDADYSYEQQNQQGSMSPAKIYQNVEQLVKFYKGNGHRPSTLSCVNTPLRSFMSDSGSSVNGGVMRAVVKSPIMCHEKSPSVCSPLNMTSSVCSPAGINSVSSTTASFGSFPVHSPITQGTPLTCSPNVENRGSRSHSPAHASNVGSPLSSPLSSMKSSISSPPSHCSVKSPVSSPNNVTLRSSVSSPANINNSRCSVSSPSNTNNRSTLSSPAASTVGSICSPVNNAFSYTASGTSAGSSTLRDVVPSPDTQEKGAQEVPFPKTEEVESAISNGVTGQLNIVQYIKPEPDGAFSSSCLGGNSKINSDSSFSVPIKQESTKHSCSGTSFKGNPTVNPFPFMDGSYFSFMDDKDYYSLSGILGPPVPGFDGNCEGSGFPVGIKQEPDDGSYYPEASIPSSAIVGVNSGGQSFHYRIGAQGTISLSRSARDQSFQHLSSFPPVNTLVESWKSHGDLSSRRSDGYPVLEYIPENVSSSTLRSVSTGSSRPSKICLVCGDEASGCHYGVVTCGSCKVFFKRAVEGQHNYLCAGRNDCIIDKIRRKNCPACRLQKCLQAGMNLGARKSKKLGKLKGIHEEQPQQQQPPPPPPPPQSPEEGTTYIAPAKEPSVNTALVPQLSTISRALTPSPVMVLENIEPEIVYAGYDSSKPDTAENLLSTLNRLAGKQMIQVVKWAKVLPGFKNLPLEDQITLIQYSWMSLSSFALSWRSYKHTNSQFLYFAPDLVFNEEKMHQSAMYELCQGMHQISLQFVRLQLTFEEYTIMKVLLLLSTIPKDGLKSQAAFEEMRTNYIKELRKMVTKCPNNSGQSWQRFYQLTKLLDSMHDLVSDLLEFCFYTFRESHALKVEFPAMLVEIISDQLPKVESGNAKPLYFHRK

Chain of 5-hydroxytryptamine receptor 2B (Homo sapiens) (P41595 whole entry): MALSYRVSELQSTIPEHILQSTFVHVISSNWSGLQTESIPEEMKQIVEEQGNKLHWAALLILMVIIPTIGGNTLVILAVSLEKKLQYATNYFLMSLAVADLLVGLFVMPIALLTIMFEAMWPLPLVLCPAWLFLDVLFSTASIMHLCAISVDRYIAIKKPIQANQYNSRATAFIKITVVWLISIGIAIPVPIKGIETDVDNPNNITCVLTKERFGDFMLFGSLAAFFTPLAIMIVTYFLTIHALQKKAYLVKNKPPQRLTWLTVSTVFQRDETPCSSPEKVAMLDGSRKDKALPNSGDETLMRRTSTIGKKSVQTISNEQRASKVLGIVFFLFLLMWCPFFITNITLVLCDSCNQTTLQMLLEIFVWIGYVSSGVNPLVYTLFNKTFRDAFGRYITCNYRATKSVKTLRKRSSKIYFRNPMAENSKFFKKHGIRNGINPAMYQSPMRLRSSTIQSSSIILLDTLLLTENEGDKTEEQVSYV
Chain of Histamine H1 receptor (Homo sapiens) (P35367 whole entry): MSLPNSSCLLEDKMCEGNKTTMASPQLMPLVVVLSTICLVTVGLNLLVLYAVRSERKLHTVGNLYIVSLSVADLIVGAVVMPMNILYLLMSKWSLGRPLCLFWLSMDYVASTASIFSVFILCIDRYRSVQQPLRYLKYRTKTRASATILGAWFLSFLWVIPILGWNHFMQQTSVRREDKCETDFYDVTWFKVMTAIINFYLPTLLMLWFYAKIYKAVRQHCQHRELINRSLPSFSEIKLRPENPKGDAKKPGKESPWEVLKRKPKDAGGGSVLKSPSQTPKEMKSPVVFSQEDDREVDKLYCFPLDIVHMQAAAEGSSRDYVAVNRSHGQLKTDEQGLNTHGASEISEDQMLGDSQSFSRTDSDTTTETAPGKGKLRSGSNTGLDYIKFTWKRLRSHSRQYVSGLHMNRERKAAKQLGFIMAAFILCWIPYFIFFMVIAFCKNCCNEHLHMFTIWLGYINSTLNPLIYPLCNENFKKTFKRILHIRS
Chain of hERG (KCNH2) (Q12809 whole entry): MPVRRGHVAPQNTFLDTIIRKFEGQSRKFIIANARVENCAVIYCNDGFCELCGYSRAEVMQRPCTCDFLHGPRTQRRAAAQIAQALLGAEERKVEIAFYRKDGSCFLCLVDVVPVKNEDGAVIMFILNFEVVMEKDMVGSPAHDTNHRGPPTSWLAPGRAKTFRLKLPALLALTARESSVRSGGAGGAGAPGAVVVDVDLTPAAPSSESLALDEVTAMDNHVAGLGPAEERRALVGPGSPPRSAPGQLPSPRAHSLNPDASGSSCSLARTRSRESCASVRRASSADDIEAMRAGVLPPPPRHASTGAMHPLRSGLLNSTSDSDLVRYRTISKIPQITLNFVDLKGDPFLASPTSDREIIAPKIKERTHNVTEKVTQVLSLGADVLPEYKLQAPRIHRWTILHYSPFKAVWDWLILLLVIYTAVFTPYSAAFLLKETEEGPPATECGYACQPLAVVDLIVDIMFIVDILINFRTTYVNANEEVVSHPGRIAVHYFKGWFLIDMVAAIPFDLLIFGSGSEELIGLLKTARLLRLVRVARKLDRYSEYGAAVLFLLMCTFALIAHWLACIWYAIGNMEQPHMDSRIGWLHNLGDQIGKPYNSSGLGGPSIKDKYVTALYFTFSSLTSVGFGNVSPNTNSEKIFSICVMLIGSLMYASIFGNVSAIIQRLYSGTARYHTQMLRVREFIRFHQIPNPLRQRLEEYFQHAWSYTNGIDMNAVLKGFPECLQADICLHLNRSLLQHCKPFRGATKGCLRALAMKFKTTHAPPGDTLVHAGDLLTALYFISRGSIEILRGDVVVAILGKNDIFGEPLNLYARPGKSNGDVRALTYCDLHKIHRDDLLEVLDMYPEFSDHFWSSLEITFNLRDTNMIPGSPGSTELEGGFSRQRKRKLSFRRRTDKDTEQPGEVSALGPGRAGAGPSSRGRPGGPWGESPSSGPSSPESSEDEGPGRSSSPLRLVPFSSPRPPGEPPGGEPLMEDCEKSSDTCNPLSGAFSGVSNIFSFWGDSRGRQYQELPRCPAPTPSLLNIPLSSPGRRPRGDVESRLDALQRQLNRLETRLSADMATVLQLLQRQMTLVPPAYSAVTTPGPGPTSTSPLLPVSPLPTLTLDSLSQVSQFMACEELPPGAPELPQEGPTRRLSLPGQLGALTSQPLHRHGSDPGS
Chain of Cytochrome P450 2D6 (P10635 whole entry): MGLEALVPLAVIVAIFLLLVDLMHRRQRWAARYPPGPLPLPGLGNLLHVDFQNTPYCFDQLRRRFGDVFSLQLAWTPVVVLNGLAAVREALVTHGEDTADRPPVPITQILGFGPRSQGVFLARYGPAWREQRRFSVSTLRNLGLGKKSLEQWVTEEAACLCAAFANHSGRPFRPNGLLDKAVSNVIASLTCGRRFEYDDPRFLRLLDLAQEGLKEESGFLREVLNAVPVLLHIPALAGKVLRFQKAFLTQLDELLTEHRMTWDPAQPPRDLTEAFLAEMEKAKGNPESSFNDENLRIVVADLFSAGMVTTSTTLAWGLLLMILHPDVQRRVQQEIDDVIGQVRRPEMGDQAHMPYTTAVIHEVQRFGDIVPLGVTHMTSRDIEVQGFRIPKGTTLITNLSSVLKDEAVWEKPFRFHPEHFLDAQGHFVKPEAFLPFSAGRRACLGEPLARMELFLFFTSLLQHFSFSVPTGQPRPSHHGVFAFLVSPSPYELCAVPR
Chain of Cytochrome P450 2C9 (P11712 whole entry): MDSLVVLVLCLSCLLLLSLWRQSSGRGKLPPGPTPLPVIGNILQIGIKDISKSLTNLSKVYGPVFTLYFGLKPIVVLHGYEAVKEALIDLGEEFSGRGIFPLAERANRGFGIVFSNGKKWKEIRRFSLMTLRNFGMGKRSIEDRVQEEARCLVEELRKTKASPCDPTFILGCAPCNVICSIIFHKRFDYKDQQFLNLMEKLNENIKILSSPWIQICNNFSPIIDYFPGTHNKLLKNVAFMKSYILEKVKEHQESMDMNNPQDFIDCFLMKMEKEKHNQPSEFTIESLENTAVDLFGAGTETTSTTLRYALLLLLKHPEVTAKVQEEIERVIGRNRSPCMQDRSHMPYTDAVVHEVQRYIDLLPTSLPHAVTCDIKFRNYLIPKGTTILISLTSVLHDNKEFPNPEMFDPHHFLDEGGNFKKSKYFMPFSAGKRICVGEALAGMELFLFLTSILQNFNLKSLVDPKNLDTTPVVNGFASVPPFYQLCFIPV
Chain of Cytochrome P450 3A4 (P08684 whole entry, the tested form may be a part): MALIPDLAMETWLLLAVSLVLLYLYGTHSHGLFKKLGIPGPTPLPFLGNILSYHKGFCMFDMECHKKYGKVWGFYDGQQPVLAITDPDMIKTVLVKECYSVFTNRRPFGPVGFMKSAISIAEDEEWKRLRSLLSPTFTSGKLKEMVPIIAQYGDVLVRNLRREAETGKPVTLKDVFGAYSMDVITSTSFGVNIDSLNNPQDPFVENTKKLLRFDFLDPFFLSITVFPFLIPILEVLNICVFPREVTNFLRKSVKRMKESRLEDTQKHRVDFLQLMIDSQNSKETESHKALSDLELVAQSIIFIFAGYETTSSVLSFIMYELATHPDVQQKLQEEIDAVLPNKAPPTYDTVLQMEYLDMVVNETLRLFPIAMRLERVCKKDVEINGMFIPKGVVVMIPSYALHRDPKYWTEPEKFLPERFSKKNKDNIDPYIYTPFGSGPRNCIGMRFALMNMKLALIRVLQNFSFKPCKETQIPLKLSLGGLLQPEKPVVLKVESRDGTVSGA

Row | EC50 [8] | Activity [9] | Structure (SMILES) | inhibition [1] | inhibition [2] | IC50 [3] | inhibition [4] | Ki [5] | IC50 (Cytochrome P450 2D6) | IC50 (Cytochrome P450 3A4) | inhibition [6] | inhibition at 10 µM (hERG (KCNH2)) | IC50 (Cytochrome P450 2C9) | half-life [7]
1 | – | – | CN1CCC2(CC1)C(=O)Nc1cc(/C=C3\c4ccccc4COc4cc(F)ccc43)ccc12 | 87% | 97% | 19 nM | < 40% | 6 nM | 7620 nM | 7040 nM | < 40% | 78% | 2830 nM | 31 min
2 | 4 nM | 31% | O=C1COc2ccc(/C=C3\c4ccccc4COc4cc(F)ccc43)cc2N1 | 67% | 26% | 2 nM | – | 2 nM | – | – | 92% | 26% | – | –
